In article PMC8002893, “Influence of Complexation of Thiosemicarbazone Derivatives with Cu (II) Ions on Their Antitumor Activity against Melanoma Cells” (International Journal of Molecular Sciences, 2021):

Experiments:
[1] = test system: BJ human normal fibroblast cells; test: MTT cell viability assay, BJ normal fibroblasts; format: cell-based; settings: MTT test, 24 h treatment
Protocol: (§1) The evaluation of cytotoxicity of tested compounds was carried out on the G361, A375, and SK-MEL-28 human melanoma cells and BJ human normal fibroblast cells. The cell lines were obtained from American Type Culture Collection (ATCC, Manassas, VA, USA). The cells were cultured at 37 °C in the presence of 5% CO2 in atmosphere. The culture medium (Dulbecco’s Modified Eagle’s Medium for G361 and A375 and Eagle’s Minimum Essential Medium for SK-MEL-28 and BJ) was supplemented with 10% foetal bovine serum. The cells morphology was examined under inverted phase contrast microscope Nikon Eclipse Ti (Nikon, Tokyo, Japan). The authenticity of tested cell lines was verified by short tandem repeat (STR) genotyping in the Department of Forensic Medicine (Medical University of Lublin, Lublin, Poland).
(§2) The cells were seeded into 96-well plates (in concentration: BJ, A375, and SK-MEL-28—1 × 10^5 cells/mL, G361—1.5 × 10^5 cells/mL) and cultured until they reach 70–80% confluency. Then the cells were incubated with tested compounds and dacarbazine in concentrations ranging from 10 to 500 µM or DMSO as vehicle in control cultures for next 24 h (max. DMSO concentration <0.5%). The compounds cytotoxicity was evaluated with the MTT colorimetric method based on the ability of viable cells to the transformation of tetrazolium salts (3-[4,5-dimethylthiazol-2-yl]-2,5-) diphenyltetrazolium bromide, MTT) to purple formazan, by cellular dehydrogenases. After 24-h-incubation cell cultures were supplemented with 20 µL of 5 mg/mL MTT (Thermofisher, Waltham, MA, USA) stock in PBS (Corning, NY, USA), and the incubation was continued for 4 h at 37 °C. Next, the medium with MTT was removed, and the formed crystals were dissolved in 200 µL of DMSO (dimethyl sulfoxide, Avantor, Gliwice, Poland). The solution absorbency was measured at 570 nm, using a PowerWave™ xs microplate spectrophotometer (BioTek Instruments, Winooski, VT, USA). The experiment was performed three times with three replicates for each concentration of tested compounds. IC50 values were determined using the AAT Bioquest IC50 calculator [51]. On the basis of obtained IC50 values for normal and malignant cells, A375 cell line and three tested compounds (CuT1, Cu10, CuT16) were chosen for further investigation.

[2] = test system: G361 human melanoma cells; test: MTT cell viability assay, G361 melanoma; format: cell-based; settings: G361, MTT test, 24 h treatment
Protocol: as §1, §2

[3] = test system: A375 human melanoma cells; test: MTT cell viability assay, A375 melanoma; format: cell-based
Protocol: as §1, §2

[4] = test system: SK-MEL-28 human melanoma cells; test: MTT cell viability assay, SK-MEL-28 melanoma; format: cell-based; settings: SK-MEL-28, MTT test, 24 h treatment
Protocol: as §1, §2

[5] = test system: DNA of A375 cells; test: DNA damage evaluation: number of AP sites; format: cell-based, human; settings: A375, 24 h, concentration corresponding to IC50; control 0.67 ± 0.08
Protocol: DNA damage was evaluated on the basis of a basic (AP) sites presence, that arose in response to oxidative damage or as an intermediate in base excision repair pathway. The A375 cells were seeded in 6-well culture plates at a density 1 × 10^5 cells/mL and after 70–80% confluency achievement the cells were treated with CuT1, Cu10, CuT16 in concentrations corresponding to IC50 values or DMSO as vehicle in control cultures. After 24 h of incubation genomic DNA was isolated using Syngen DNA Mini Kit (Syngen Biotech, Wroclaw, Poland) according to the manufacturer’s instruction. The concentrations of isolated DNA for all samples were equalized to 100 µg/mL. The measurements of the number of AP sites were evaluated with DNA Damage Quantification Kit (Dojindo, Japan) according to the manufacturer’s instruction. The DNA was treated with Aldehyde Reactive Probe (ARP) to tag all of the AP sites with a biotin residue. Then all of the AP sites were quantified using avidin—biotin assay. The coloured product of horseradish peroxidase conjugated to the avidin was detected at 650 nm using a PowerWave™ xs microplate spectrophotometer (BioTek Instruments, Winooski, VT, USA).

[6] = test system: ERCC; test: qRT-PCR gene expression in A375 cells: ERCC; format: cell-based, human; settings: A375, 24 h, concentration corresponding to IC50; RQ = 2^-ΔΔCt vs control
Protocol: (§3) The expression level of genes connected with DNA repair and oxidative stress response was evaluated with quantitative real-time PCR (qRT-PCR) method. The A375 cells were seeded in 6-well culture plates at a density 1 × 10^5 cells/mL and after 70–80% confluency achievement the cells were treated with CuT1, Cu10, CuT16 in concentrations corresponding to IC50 values or DMSO as vehicle in control cultures. After 24h of incubation total RNA was isolated using the Syngen Blood/Cell RNA Mini Kit (Syngen Biotech, Wroclaw, Poland). All samples were transcribed using NG dART RT-PCR reagents (EURx, Gdansk, Poland) according to the manufacturer’s instructions. The relative mRNA expression level was determined by relative quantification method (ΔΔCt) using 18S ribosomal N5 (RNA18SN5) and beta-actin (ACTB) as endogenous controls. The reference genes were selected on the basis of our preliminary studies, where RNA18SN5 and ACTB remained unaffected by the experimental conditions. The PCR was conducted in triplicate using Applied Biosystems® 7500 Fast Real-Time PCR system (Applied Biosystems, Foster City, CA, USA) and SG qPCR Master Mix (2×) (EURx, Gdansk, Poland) in accordance with the manufacturer’s protocol. Data was presented and analysed as RQ values (RQ = 2^−ΔΔCt).

[7] = test system: MGMT; test: qRT-PCR gene expression in A375 cells: MGMT; format: cell-based, human; settings: A375, 24 h, concentration corresponding to IC50; RQ = 2^-ΔΔCt vs control
Protocol: as §3

[8] = test system: OGG1; test: qRT-PCR gene expression in A375 cells: OGG1; format: cell-based, human; settings: A375, 24 h, concentration corresponding to IC50; RQ = 2^-ΔΔCt vs control
Protocol: as §3

[9] = test system: MLH1; test: qRT-PCR gene expression in A375 cells: MLH1; format: cell-based, human; settings: A375, 24 h, concentration corresponding to IC50; RQ = 2^-ΔΔCt vs control
Protocol: as §3

[10] = test system: PARP1; test: qRT-PCR gene expression in A375 cells: PARP1; format: cell-based, human; settings: A375, 24 h, concentration corresponding to IC50; RQ = 2^-ΔΔCt vs control
Protocol: as §3

[11] = test system: ATM; test: qRT-PCR gene expression in A375 cells: ATM; format: cell-based, human; settings: A375, 24 h, concentration corresponding to IC50; RQ = 2^-ΔΔCt vs control
Protocol: as §3

[12] = test system: XPC; test: qRT-PCR gene expression in A375 cells: XPC; format: cell-based, human; settings: A375, 24 h, concentration corresponding to IC50; RQ = 2^-ΔΔCt vs control
Protocol: as §3

[13] = test system: MSH2; test: qRT-PCR gene expression in A375 cells: MSH2; format: cell-based, human; settings: A375, 24 h, concentration corresponding to IC50; RQ = 2^-ΔΔCt vs control
Protocol: as §3

[14] = test system: CAT; test: qRT-PCR gene expression in A375 cells: CAT; format: cell-based, human; settings: A375, 24 h, concentration corresponding to IC50; RQ = 2^-ΔΔCt vs control
Protocol: as §3

[15] = test system: GPX2; test: qRT-PCR gene expression in A375 cells: GPX2; format: cell-based, human; settings: A375, 24 h, concentration corresponding to IC50; RQ = 2^-ΔΔCt vs control
Protocol: as §3

[16] = test system: SOD2; test: qRT-PCR gene expression in A375 cells: SOD2; format: cell-based, human; settings: A375, 24 h, concentration corresponding to IC50; RQ = 2^-ΔΔCt vs control
Protocol: as §3

[17] = test system: A375 cells; test: Microscopic observation of cell morphology; format: cell-based, human; settings: A375, 24 h, concentration corresponding to IC50
Protocol: The MTT test results for selected compounds were verified by microscopic observations of cell morphology. […] A large part of the cells floated in the culture medium (Figure 5).
as §1

For `COc1ccc(C=NNC(=S)Nc2ccc(Cl)cc2)cc1OC.[Cl-].[Cl-].[Cu+2]` [CuT16], the IC50 [1] was 450 ± 11.7 µM, the IC50 [2] was > 500 µM and the IC50 ([3]; A375, MTT test, 24 h treatment) was 145 ± 19.9 µM. The “toxicity to A375 / malignant cells versus normal cells (in words)” value ([3]; from IC50 values, MTT, 24 h) was “less toxic for normal cells”, the IC50 [4] was 478 ± 11 µM and the AP sites number [5] was 14.09 ± 0.44 AP/100 kbp. The “Mean RQ ERCC mRNA” value [6] was 0.267, the “Mean RQ MGMT mRNA” value [7] was 0.361 and the “Mean RQ OGG1 mRNA” value [8] was 0.952. For the same compound, the “Mean RQ MLH1 mRNA” value [9] was 0.929, the “Mean RQ PARP1 mRNA” value [10] was 0.640 and the “Mean RQ ATM mRNA” value [11] was 2.724. For the same compound, the “Mean RQ XPC mRNA” value [12] was 1.438, the “Mean RQ MSH2 mRNA” value [13] was 0.936 and the “Mean RQ CAT mRNA” value [14] was 0.387. The “Mean RQ GPX2 mRNA” value [15] was 0.022, the “Mean RQ SOD2 mRNA” value [16] was 1.393 and the “cell morphology (in words)” value [17] was “became round and had poor adherence”.
